Where no end group is shown, it is not given here. [ ]: non-standard residue; d: D form.

Data set [1] in a line: Body weight of endometriosis model mice after single intraperitoneal administration. Conditions: for Body Weight, 7th day: 7 days after cell transplantation, before peptide administration (baseline); for Body Weight, 7th day / Body Weight, 8th day: mean ± standard error. The class given is in vivo, mouse. How it is done:
Seven days after the A431-CNGB3-myc cells were intraperitoneally transplanted, 0.5 mL of physiological saline solution warmed to 37° C. was intraperitoneally administered to an endometriosis model mouse under isoflurane anesthesia, followed by performing massage. Immediately after the massage, a solution of the K14D-H5D peptide dissolved in physiological saline was intraperitoneally administered. The K14D-H5D peptide was administered at a dose of 0 mg/10 mL/kg (control) (n=7), 5 mg/10 mL/kg (n=8), or 10 mg/10 mL/kg (n=8) per mouse body weight
Each mouse was weighed 7 days after the A431-CNGB3-myc cells were intraperitoneally transplanted, before K14D-H5D peptide administration and before exsanguination.
The mouse group in which the dose of the K14D-H5D peptide per mouse body weight was 0 mg/10 mL/kg was represented as G1 group, the mouse group in which the dose of the K14D-H5D peptide per mouse body weight was 5 mg/10 mL/kg was represented as G2 group, and the mouse group in which the dose of the K14D-H5D peptide per mouse body weight was 10 mg/10 mL/kg was represented as G3 group. […] In the Table, “7th day” in the “Body Weight” column is the body weight 7 days after the intraperitoneal transplantation of the A431-CNGB3-myc cells, which was before the administration of the K14D-H5D peptide, and “8th day” is the body weight 24 hours after the administration of the K14D-H5D peptide.

In another data set the test system is OVCAR3-Luc cells. In words: Cytocidal activity by ATP amount (CellTiter-Glo assay kit). The class given is cell-based. How it is done:
The tumor tissue to be transplanted to the mouse was prepared by culturing an ovarian cancer cell line (OVCAR3-Luc cells, transferred from another facility) into which the luciferase gene had been introduced, and used. The OVCAR3-Luc cells were cultured in a culture medium containing a RPMI medium 1640 (11875-093: manufactured by Gibco) containing 10% inactivated FBS (manufactured by Corning) at 37° C. and under a 5 vol % carbon dioxide environment. Passaging was carried out every 2-3 days.
(§1) The cytocidal activity of each peptide was evaluated by measuring the ATP amount in the cells treated with each peptide using CellTiter-Glo (registered trademark) assay kit (manufactured by Promega).
(§2) Specifically, first, the A431-CNGB3-myc cells or the OVCAR3-Luc cells after 3 to 4 passages were seeded in a 96-well plate (manufactured by Corning/Costar, Lot No. 00515003) so as to adjust the cell concentration to 1×10^4 cells/well. […] Luminescence (RLU: RELATIVE LIGHT UNITS) of each reaction solution after standing at room temperature was measured using a Synergy H1 hybrid multimode microplate reader (manufactured by BioTek). The luminescence intensity of the reaction solution is an index of the ATP amount. The smaller the luminescence intensity of the reaction solution, the smaller the ATP amount and the stronger the cytocidal activity of the administered peptide. […]
A general note: ATP-based viability assays read luminescence as a measure of living cells.

A further data set has as its system A431-CNGB3-myc cells. The data set is described as above. The class given is cell-based, human. Conditions: peptide 2.34 to 300.0 μM, 24 hours, FIG. 1. The protocol:
A transformed cell (A431-CNGB3-myc cell) obtained by introducing a gene encoding human CNGB3, in which an myc tag was fused in a C-terminal, into an A431 cell (human epithelial-like cell cancer-derived cell strain) and forcibly expressing thereof was prepared as an endometriosis model cell.
as §1
as §2, with “peptide. All trials were measured in triplicate, and the average value thereof was taken as the emission intensity (RLU) of each reaction solution.” for “peptide.”

For `CC(C)C[C@@H](NC(=O)[C@@H](Cc1c[nH]cn1)NC(=O)[C@@H](C)NC(=O)[C@@H](CC(C)C)NC(=O)[C@@H](Cc1c[nH]cn1)NC(=O)[C@@H](CCCCN)NC(=O)[C@@H](C)NC(=O)[C@@H](CC(C)C)NC(=O)[C@@H](CCCCN)NC(=O)[C@@H](C)NC(=O)[C@@H](CC(C)C)NC(=O)[C@@H](CCCCN)NC(=O)[C@@H](CCCCN)NC(=O)[C@@H](C)NC(=O)[C@@H](CC(C)C)NC(=O)[C@@H](CCCCN)NC(=O)[C@@H](C)NC(=O)[C@@H](CC(C)C)NC(=O)[C@H](N)CCCCN)C(=O)O` [Peptide K14D-H5D, KLAKLAK-KLAKLAK-HLAHL], the “change in body weight” value in data set [1] (5 or 10 mg/10 mL/kg single i.p., 24 hours after administration, depending on the dose) is given as “slight decrease”. Moreover, the “Body Weight, 7th day” value came to 20.1 ± 0.4 g in data set [1] (G2 group, 5 mg/10 mL/kg i.p.) and 20.0 ± 0.4 g in data set [1] (G3 group, 10 mg/10 mL/kg i.p.). Moreover, the “Body Weight, 8th day” value in data set [1] (G2 group, 5 mg/10 mL/kg single i.p., 24 hours after administration) was 19.2 ± 0.5 g; in data set [1] (G3 group, 10 mg/10 mL/kg single i.p., 24 hours after administration) it was 17.5 ± 0.3 g.
As to “KLAKLAK-HLAHLAH-HLAHLAH-HLAH ([dK][dL][dA][dK][dL][dA][dK][dH][dL][dA][dH][dL][dA][dH][dH][dL][dA][dH][dL][dA][dH][dH][dL][dA][dH]) [Peptide K7D-H18D, reference compound]”, the “relative ATP amount (%) / cytocidal activity” value with OVCAR3-Luc cells (OVCAR3-Luc cells, peptide 2.34 to 300.0 μM, 24 hours, FIG. 2) is “decreased in a dose-dependent manner”; in the data set on A431-CNGB3-myc cells it was “decreased in a dose-dependent manner”.
Take “KLAKLAK-KLAKLAK-HLAHL-VRRADNRPG (KLAKLAKKLAKLAKHLAHLVRRADNRPG; not fully specified (some residues); printed as KLAKLAK-KLAKLAK-HLAHL-VRRADNRPG; also: D-amino acids, positions not given here) [Peptide K14D-H5D-Z13]”: the “cytocidal activity compared with the K14D-H5D peptide” value in the data set on OVCAR3-Luc cells (OVCAR3-Luc cells having no CNGB3 on the cell surface, FIG. 3) is “the same cytocidal activity”.

Source of the values: patent publication US11191804B2, “Cytocidal agent” (FUJITA ACADEMY, priority 2018, dated 2021).
